In the NIST ThermoML archive (doi:10.1016/j.tca.2004.12.026):
Numbers after ± are expanded uncertainties. Values belong to the molecule of their own block, whether it stands above or below them.

Columns and labels:
[1] = 298.15 K; 101.33 kPa; Liquid; Vibrating tube method
[2] = excess molar enthalpy (molar enthalpy of mixing); xn = mol fraction of the nth substance listed; conditions: 298.15 K, 101.33 kPa, Liquid, Flow calorimetry

Compound: COC(C)(C)C [2-methoxy-2-methylpropane]
mass density [1]: 735.69 ± 0.4 kg/m3

Compound: CCC(C)CC [3-methylpentane] + COC(C)(C)C
excess molar enthalpy ([2]; x2 = 0.0499): 0.0137 ± 0.000382 kcal/mol
excess molar enthalpy ([2]; x2 = 0.0999): 0.0259 ± 0.000502 kcal/mol
excess molar enthalpy ([2]; x2 = 0.1501): 0.0382 ± 0.000621 kcal/mol
excess molar enthalpy ([2]; x2 = 0.2): 0.0482 ± 0.000717 kcal/mol
excess molar enthalpy ([2]; x2 = 0.2495): 0.0559 ± 0.000789 kcal/mol
excess molar enthalpy ([2]; x2 = 0.3004): 0.0629 ± 0.00086 kcal/mol
excess molar enthalpy ([2]; x2 = 0.3502): 0.0683 ± 0.000932 kcal/mol
excess molar enthalpy ([2]; x2 = 0.3999): 0.072 ± 0.000956 kcal/mol
excess molar enthalpy ([2]; x2 = 0.4505): 0.0745 ± 0.00098 kcal/mol
excess molar enthalpy ([2]; x2 = 0.4997): 0.0752 ± 0.001 kcal/mol
excess molar enthalpy ([2]; x2 = 0.55): 0.0741 ± 0.00098 kcal/mol
excess molar enthalpy ([2]; x2 = 0.5996): 0.0717 ± 0.000956 kcal/mol
excess molar enthalpy ([2]; x2 = 0.6502): 0.0684 ± 0.000932 kcal/mol
excess molar enthalpy ([2]; x2 = 0.7003): 0.063 ± 0.00086 kcal/mol
excess molar enthalpy ([2]; x2 = 0.75): 0.0561 ± 0.000813 kcal/mol
excess molar enthalpy ([2]; x2 = 0.7999): 0.0476 ± 0.000717 kcal/mol
excess molar enthalpy ([2]; x2 = 0.8501): 0.0377 ± 0.000621 kcal/mol
excess molar enthalpy ([2]; x2 = 0.8999): 0.0263 ± 0.000502 kcal/mol
excess molar enthalpy ([2]; x2 = 0.95): 0.0128 ± 0.000359 kcal/mol

Compound: CCC(C)CC [3-methylpentane]
mass density [1]: 660.3 ± 0.41 kg/m3

Continued, values first:

mass density [1]: 745.38 ± 0.42 kg/m3
Compound: CCCCCCCCCCCC [dodecane]

mass density [1]: 726.31 ± 0.42 kg/m3
Compound: CCCCCCCCCC [decane]
